# Assay results as given in ChEMBL document CHEMBL5360614, “Quinoline Thiourea-Based Zinc Ionophores with Antibacterial Activity” (J Med Chem, 2023).
# Calls of active or inactive are those of the source. The rule behind the calls is not given here.
# How the values were obtained:
# [1] = tested on: Staphylococcus aureus; experiment: Antibacterial activity against Staphylococcus aureus MTCC-96 assessed as reduction in bacterial growth incubated for 14 to 16 hrs by microbroth dilution method; assay type: functional; settings: time 14-16 hrs
# [2] = tested on: Staphylococcus aureus; experiment: Antibacterial activity against gentamicin-and methicillin-resistant Staphylococcus aureus ATCC 33592 assessed as reduction in bacterial growth incubated for 14 to 16 hrs by microbroth dilution method; assay type: functional; settings: time 14-16 hrs
# [3] = tested on: Escherichia coli; experiment: Antibacterial activity against Escherichia coli MTCC 1687 assessed as reduction in bacterial growth incubated for 14 to 16 hrs by microbroth dilution method; assay type: functional; settings: time 14-16 hrs
# [4] = tested on: Staphylococcus aureus; experiment: Disruption of membrane integrity in Staphylococcus aureus MTCC-96 assessed as increase in fluorescence intensity by PI staining based fluorescence analysis; assay type: functional, organism-based
# [5] = tested on: Cell membrane; experiment: Induction of cell membrane depolarization in Staphylococcus aureus MTCC-96 assessed as increase in fluorescence intensity at 30 uM by DiSC3-5 dye based fluorescence method; assay type: subcellular; settings: filed as opener
# [6] = tested on: Staphylococcus aureus; experiment: (§1) Antibacterial activity against gentamicin-and methicillin-resistant Staphylococcus aureus ATCC 33592 assessed as reduction in bacterial growth incubated for 14 to 16 hrs in presence of 100 uM ZnCl2 by microbroth dilution method; assay type: functional; settings: time 14-16 hrs
# [7] = tested on: Staphylococcus aureus; experiment: (§2) Antibacterial activity against gentamicin-and methicillin-resistant Staphylococcus aureus ATCC 33592 assessed as reduction in bacterial growth incubated for 14 to 16 hrs in presence of 200 uM ZnCl2 by microbroth dilution method; assay type: functional; settings: time 14-16 hrs
# [8] = tested on: Staphylococcus aureus; experiment: as §1, with “1” for “100”, “1-(2-(1H-benzo[d]imidazol-1-yl)quinolin-8-yl)-3-(3,5-bis(trifluoromethyl)phenyl)thiourea” for “ZnCl2”; assay type: functional; settings: time 14-16 hrs
# [9] = tested on: Staphylococcus aureus; experiment: as §1, with “of 1 uM 1-(2-(1H-benzo[d]imidazol-1-yl)quinolin-8-yl)-3-(3,5-bis(trifluoromethyl)phenyl)thiourea and” for “of”; assay type: functional; settings: time 14-16 hrs
# [10] = tested on: Staphylococcus aureus; experiment: as §2, with “of 1 uM 1-(2-(1H-benzo[d]imidazol-1-yl)quinolin-8-yl)-3-(3,5-bis(trifluoromethyl)phenyl)thiourea and” for “of”; assay type: functional; settings: time 14-16 hrs
# [11] = tested on: Staphylococcus aureus; experiment: as §1, with “2 uM 1-(2-(1H-benzo[d]imidazol-1-yl)quinolin-8-yl)-3-(3,5-bis(trifluoromethyl)phenyl)thiourea and 50” for “100”; assay type: functional; settings: time 14-16 hrs
# [12] = tested on: Staphylococcus aureus; experiment: as §1, with “1 uM 1-(2-(1H-benzo[d]imidazol-1-yl)quinolin-8-yl)-3-(3,5-bis(trifluoromethyl)phenyl)thiourea and 50” for “100”; assay type: functional; settings: time 14-16 hrs
# [13] = tested on: Staphylococcus aureus; experiment: Potency index, ratio of compound MIC to compound MIC in presence of 1 uM 1-(2-(1H-benzo[d]imidazol-1-yl)quinolin-8-yl)-3-(3,5-bis(trifluoromethyl)phenyl)thiourea and 200 uM ZnCl2 for antibacterial activity against gentamicin-and methicillin-resistant Staphylococcus aureus ATCC 33592; assay type: functional
# [14] = tested on: Staphylococcus aureus; experiment: In vivo antibacterial activity against Staphylococcus aureus MTCC-96 infected in Balb/c mouse assessed as bacterial load by measuring CFU in liver at 523.455 microM/Kg, iv for 7 days by CFU assay (Rvb= 719 CFU); assay type: functional, organism-based; settings: time 7.0 day
# [15] = tested on: Staphylococcus aureus; experiment: In vivo antibacterial activity against Staphylococcus aureus MTCC-96 infected in Balb/c mouse assessed as less dilated portal vein in liver at 523.455 microM/Kg, iv for 7 days by hematoxylin and eosin staining based microscopic analysis; assay type: functional, organism-based; settings: time 7.0 day
# [16] = tested on: Staphylococcus aureus; experiment: In vivo antibacterial activity against Staphylococcus aureus MTCC-96 infected in Balb/c mouse assessed as less dilated hepatic artery at 523.455 microM/Kg, iv for 7 days by hematoxylin and eosin staining based microscopic analysis; assay type: functional, organism-based; settings: time 7.0 day
# [17] = tested on: Staphylococcus aureus; experiment: In vivo antibacterial activity against Staphylococcus aureus MTCC-96 infected in Balb/c mouse assessed as liver central vein with minimum infiltration at 523.455 microM/Kg, iv for 7 days by hematoxylin and eosin staining based microscopic analysis; assay type: functional, organism-based; settings: time 7.0 day
# [18] = tested on: Staphylococcus aureus; experiment: In vivo antibacterial activity against Staphylococcus aureus MTCC-96 infected in Balb/c mouse assessed as hepatocyte distribution at 523.455 microM/Kg, iv for 7 days by hematoxylin and eosin staining based microscopic analysis; assay type: functional, organism-based; settings: time 7.0 day
compound,measurement,setting,value
O=C(O)c1cn(C2CC2)c2cc(N3CCNCC3)c(F)cc2c1=O [CIPROFLOXACIN],MIC,[1],0.45 µM
same,MIC,[2],1.5 µM
same,MIC,[3],0.51 µM
same,Activity,[4],inactive
CC(C)[C@@H]1NC(=O)[C@H](C)OC(=O)[C@@H](C(C)C)NC(=O)[C@@H](C(C)C)OC(=O)[C@H](C(C)C)NC(=O)[C@H](C)OC(=O)[C@@H](C(C)C)NC(=O)[C@@H](C(C)C)OC(=O)[C@H](C(C)C)NC(=O)[C@H](C)OC(=O)[C@@H](C(C)C)NC(=O)[C@@H](C(C)C)OC1=O,Activity,[5],Active
CC1(C)S[C@@H]2[C@H](NC(=O)[C@H](N)c3ccccc3)C(=O)N2[C@H]1C(=O)O [AMPICILLIN],MIC,[2],134 µM
same,MIC,[6],134 µM
same,MIC,[7],134 µM
same,MIC,[8],2.1 µM
same,MIC,[9],0.03 µM
same,MIC,[10],0.03 µM
same,MIC,[11],0.03 µM
same,MIC,[12],2 µM
same,Ratio,[13],4466
GENTAMICIN,Activity,[14],62 CFU
same,Activity,[15],Active
same,Activity,[16],Active
same,Activity,[17],Active
same,Activity,[18],Active
